The target in assay [1] is T1, 5-HT7 receptors (Homo sapiens, UniProt P34969). As to the kind of experiment: Functional cAMP enzyme fragment complementation assay (HitHunter cAMP), antagonist Kb. In kind it is cell-based. Further details: expressed in transfected cells. Particulars: cells expressing human 5HT7, antagonist mode with EC70 5-HT. The method, then: Functional efficacy of the compounds of the disclosure on 5-HT7 serotonin receptors are measured in a cell based cAMP enzyme fragment complementation assay using the HitHunter cAMP assay (DiscoveRx). Cells stably expressing human 5HT7 receptors are plated in 96-well plates at 4000 cells/well, 16-20 hours prior to assay in growth media (Ultraculture medium, 2 mM GlutaMax and G418 1 mg/mL. Serial dilutions of the agonist, 5-hydroxytryptamine (5-HT), are prepared in a final concentration range of 10 μM to 10 nM. Compounds of the disclosure are prepared in 3-fold serial dilutions to obtain a final concentration range of 10 μM to 0.1 nM. Compounds of the disclosure are tested for agonist activity in the absence of 5-HT and antagonist activity in the presence of 5-HT. For the cAMP assay, the protocol is followed according to the instructions provided by the supplier. Briefly, cells are incubated with a compound of the disclosure for 30 minutes at 37° C. prior to addition of EC70 concentration of 5-HT. After an additional 30 minutes, cAMP antibody/cell lysis solution is added (20 μL/well) and incubated for 60 minutes at room temperature. cAMP XS+EA reagent is added (20 μL/well) and incubated for 2 hours at room temperature. Luminescence is read on the Envision Multilabel plate reader.

The target of assay [2] is T1, 5-HT7 receptors. Nature of the assay: Radiolabeled binding ([3H]LSD competition, membrane fractions).

pKi: −log10 of the molar value.

T1 sequence (P34969 whole entry, the tested form may be a part): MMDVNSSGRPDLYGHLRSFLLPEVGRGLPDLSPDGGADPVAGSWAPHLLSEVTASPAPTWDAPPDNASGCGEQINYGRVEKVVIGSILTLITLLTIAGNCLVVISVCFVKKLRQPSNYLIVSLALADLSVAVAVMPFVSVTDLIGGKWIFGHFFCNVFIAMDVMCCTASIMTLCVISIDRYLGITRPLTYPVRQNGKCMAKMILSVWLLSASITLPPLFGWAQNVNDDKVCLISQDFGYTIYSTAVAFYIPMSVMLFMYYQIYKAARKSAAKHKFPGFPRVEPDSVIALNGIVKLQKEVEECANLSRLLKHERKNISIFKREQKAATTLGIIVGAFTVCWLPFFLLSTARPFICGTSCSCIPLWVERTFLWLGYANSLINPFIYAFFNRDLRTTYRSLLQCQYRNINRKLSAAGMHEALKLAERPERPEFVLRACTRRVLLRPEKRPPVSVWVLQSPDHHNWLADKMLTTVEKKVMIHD

As usually defined, the Kb is the affinity of an antagonist, worked out from how it opposes an agonist. A lower Kb goes with higher antagonist affinity. By pKi is commonly meant −log10 of the Ki, conventionally taken in molar units. Read a low pKi as a high Ki. With `CS(=O)(=O)NCC(=O)N1CCC2(CC1)C[C@H](CCN1CCN(c3cccc(Cl)c3)CC1)OC2=O` [Compound 9], in assay [1], the Kb lay within 10 to 100 nM. Also, the pKi in assay [2] is 6.70 to 7.30.
In assay [1], `CC(=O)NCC(=O)N1CCC2(CC1)C[C@H](CCN1CCN(c3ccc(F)cc3)CC1)OC2=O` [Compound 6] yielded a Kb of 10 to 100 nM.
